From ChEMBL document CHEMBL1201862, “PubChem BioAssay data set” (2004)
Values joined by “and” are separate entries in the source; they are usually repeats but may differ in a detail not shown here. Equal entries are not always repeated. Active and inactive are the calls of the source.

Assays:
[1] = test system: Escherichia coli; assay: microbe, parasite or virus in culture
[2] = target: Delta-type opioid receptor (Homo sapiens, UniProt P41143); assay: Counterscreen for agonists of heterodimerization of the mu 1 (OPRM1) and delta 1 (OPRD1) opioid receptors: Luminescence-based cell-based high throughput dose response assay to identify agonists of OPRD1 homodimerization. [Related pubchem assays (depositor defined):AID504326, AID504355, AID504692, AID504904, AID504905]; format: functional
Chain of Delta-type opioid receptor (P41143 whole entry): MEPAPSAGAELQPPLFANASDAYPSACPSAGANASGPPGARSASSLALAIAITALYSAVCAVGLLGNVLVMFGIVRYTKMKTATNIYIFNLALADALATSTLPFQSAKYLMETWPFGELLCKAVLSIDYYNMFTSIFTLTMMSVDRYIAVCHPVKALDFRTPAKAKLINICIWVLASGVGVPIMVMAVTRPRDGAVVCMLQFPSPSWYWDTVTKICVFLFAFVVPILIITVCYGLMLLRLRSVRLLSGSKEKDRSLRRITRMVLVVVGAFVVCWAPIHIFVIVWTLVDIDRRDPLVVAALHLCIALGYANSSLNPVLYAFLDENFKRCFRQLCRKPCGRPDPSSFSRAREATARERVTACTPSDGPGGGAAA

[3] = target: Opioid receptors; mu & delta (Homo sapiens, UniProt P41143+P35372); assay: agonists of MOR-DOR heterodimerization, dose response, cell-based, luminescence (AID 588407); format: functional
[4] = target: 5-hydroxytryptamine receptor 5A (Homo sapiens, UniProt P47898); assay: Counterscreen for agonists of OPRM1-OPRD1 heterodimerization: luminescence-based cell-based high throughput dose response assay to identify agonists of 5-hydroxytryptamine (serotonin) 5A receptor (HTR5A). [Related pubchem assays (depositor defined):AID504326, AID504355, AID504692, AID504904, AID504905]; format: functional
Chain of 5-hydroxytryptamine receptor 5A (P47898 whole entry): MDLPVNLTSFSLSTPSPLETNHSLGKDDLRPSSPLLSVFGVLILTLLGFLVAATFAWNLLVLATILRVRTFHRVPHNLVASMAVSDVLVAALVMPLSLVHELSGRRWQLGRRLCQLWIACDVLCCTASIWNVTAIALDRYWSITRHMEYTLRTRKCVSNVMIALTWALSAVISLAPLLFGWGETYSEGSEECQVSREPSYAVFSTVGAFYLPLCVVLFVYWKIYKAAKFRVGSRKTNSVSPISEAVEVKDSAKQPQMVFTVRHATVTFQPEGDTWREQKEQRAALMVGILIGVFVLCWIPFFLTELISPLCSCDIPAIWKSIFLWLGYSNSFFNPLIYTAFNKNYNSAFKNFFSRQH

[5] = target: Mu-type opioid receptor (Homo sapiens, UniProt P35372); assay: Counterscreen for agonists of heterodimerization of the mu 1 (OPRM1) and delta 1 (OPRD1) opioid receptors: Luminescence-based cell-based high throughput dose response assay to identify agonists of OPRM1 homodimerization.; format: functional;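 also: U2OS cells expressing OPRM1 and beta-arrestin as split beta-galactosidase partners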
Chain of Mu-type opioid receptor (P35372 whole entry): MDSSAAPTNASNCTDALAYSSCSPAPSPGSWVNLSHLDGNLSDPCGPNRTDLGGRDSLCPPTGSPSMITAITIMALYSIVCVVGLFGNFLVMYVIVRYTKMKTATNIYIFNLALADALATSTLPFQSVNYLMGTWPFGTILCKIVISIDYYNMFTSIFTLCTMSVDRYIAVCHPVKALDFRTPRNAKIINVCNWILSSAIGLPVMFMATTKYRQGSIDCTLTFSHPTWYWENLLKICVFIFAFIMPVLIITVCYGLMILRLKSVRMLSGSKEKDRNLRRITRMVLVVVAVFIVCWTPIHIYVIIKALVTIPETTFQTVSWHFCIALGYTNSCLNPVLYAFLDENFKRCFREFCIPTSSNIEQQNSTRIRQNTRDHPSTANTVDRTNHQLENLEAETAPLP

[6] = target: Glycogen synthase kinase-3 beta (Homo sapiens, UniProt P49841); assay: Inhibition of Human GSK-3 beta Activity Measured in Biochemical System Using Microfluidics - 2063-05_Inhibitor_Dose_DryPowder_Activity. [Related pubchem assays (depositor defined):AID2709]
Chain of Glycogen synthase kinase-3 beta (P49841 whole entry): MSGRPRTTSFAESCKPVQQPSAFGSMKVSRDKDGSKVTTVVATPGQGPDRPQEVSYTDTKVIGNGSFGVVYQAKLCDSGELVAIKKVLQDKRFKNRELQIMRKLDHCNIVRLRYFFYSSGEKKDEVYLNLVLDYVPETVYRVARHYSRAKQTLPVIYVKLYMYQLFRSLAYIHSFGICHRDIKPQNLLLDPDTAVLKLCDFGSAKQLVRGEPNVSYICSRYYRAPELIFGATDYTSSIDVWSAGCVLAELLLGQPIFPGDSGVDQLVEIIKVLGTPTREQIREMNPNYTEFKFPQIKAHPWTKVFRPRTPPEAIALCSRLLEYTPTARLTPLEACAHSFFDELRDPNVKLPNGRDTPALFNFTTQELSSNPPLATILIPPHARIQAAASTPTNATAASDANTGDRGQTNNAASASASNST

[7] = target: Glycogen synthase kinase-3 alpha (Homo sapiens, UniProt P49840); assay: Inhibition of Human GSK-3 alpha Activity Measured in Biochemical System Using Microfluidics - 2063-06_Inhibitor_Dose_DryPowder_Activity. [Related pubchem assays (depositor defined):AID2709]
Chain of Glycogen synthase kinase-3 alpha (P49840 whole entry): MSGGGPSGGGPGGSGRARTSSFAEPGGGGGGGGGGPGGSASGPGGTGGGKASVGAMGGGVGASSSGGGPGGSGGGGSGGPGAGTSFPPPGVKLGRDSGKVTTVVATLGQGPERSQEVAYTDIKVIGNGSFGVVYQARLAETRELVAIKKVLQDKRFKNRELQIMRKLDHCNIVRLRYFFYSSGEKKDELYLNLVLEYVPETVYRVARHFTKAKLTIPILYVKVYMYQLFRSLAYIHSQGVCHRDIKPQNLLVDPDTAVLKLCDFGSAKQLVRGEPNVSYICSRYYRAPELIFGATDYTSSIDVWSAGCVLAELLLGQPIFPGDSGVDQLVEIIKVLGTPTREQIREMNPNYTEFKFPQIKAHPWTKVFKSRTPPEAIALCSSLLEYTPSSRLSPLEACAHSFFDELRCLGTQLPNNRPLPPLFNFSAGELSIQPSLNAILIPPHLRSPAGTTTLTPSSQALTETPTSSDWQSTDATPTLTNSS

[8] = target: Beta-2 adrenergic receptor (Homo sapiens, UniProt P07550); assay: beta2AR agonists driving receptor internalization, dose response, cell-based, FAP fluorogen, flow cytometry, cherry pick 1 (AID 588763); format: functional
Chain of Beta-2 adrenergic receptor (P07550 whole entry, the tested form may be a part): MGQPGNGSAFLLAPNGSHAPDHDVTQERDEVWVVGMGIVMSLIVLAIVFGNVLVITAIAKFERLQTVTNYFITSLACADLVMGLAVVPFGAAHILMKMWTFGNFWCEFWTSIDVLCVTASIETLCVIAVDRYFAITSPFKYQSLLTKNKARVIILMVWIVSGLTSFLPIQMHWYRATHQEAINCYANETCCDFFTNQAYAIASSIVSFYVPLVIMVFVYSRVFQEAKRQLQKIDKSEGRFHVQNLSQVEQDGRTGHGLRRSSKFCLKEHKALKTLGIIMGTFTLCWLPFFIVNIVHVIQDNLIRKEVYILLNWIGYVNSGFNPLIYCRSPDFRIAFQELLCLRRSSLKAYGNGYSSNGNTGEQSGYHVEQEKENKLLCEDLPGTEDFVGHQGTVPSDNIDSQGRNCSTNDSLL

[9] = target: Hexokinase-1 (Homo sapiens, UniProt P19367); assay: SAR analysis of small molecule inhibitors of hexokinase domain containing I (HKDC1) in the hexokinase 1 selectivity assay. [Related pubchem assays (depositor defined):AID493160, AID493190]; format: functional
Chain of Hexokinase-1 (P19367 whole entry, the tested form may be a part): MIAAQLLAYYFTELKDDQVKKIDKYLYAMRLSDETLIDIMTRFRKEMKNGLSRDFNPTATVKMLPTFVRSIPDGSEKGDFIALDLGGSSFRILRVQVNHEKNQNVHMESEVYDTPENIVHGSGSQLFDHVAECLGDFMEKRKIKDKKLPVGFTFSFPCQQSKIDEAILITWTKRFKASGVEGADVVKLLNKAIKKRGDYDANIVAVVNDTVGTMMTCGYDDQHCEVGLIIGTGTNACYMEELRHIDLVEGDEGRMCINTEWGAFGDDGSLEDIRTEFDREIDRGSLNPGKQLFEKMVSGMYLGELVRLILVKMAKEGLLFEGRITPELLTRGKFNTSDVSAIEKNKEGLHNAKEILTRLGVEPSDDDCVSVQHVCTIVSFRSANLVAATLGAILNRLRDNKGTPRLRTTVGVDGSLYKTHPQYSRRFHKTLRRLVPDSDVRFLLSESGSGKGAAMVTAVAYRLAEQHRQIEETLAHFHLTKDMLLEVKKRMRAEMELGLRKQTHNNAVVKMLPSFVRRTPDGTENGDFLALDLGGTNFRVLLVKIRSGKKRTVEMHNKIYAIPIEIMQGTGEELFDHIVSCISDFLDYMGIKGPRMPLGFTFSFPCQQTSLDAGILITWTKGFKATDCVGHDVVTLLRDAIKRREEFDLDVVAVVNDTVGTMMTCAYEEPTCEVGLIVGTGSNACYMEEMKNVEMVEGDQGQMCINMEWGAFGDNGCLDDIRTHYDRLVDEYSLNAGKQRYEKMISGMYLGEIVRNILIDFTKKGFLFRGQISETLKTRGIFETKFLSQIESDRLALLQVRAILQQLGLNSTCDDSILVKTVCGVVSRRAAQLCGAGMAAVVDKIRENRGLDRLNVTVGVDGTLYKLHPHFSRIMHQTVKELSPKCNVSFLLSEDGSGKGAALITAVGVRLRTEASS

[10] = target: T1, Hexokinase HKDC1 (Homo sapiens, UniProt Q2TB90); assay: SAR analysis of small molecule inhibitors of hexokinase domain containing I (HKDC1). [Related pubchem assays (depositor defined):AID493160, AID493190]; format: functional
T1 sequence (Q2TB90 whole entry): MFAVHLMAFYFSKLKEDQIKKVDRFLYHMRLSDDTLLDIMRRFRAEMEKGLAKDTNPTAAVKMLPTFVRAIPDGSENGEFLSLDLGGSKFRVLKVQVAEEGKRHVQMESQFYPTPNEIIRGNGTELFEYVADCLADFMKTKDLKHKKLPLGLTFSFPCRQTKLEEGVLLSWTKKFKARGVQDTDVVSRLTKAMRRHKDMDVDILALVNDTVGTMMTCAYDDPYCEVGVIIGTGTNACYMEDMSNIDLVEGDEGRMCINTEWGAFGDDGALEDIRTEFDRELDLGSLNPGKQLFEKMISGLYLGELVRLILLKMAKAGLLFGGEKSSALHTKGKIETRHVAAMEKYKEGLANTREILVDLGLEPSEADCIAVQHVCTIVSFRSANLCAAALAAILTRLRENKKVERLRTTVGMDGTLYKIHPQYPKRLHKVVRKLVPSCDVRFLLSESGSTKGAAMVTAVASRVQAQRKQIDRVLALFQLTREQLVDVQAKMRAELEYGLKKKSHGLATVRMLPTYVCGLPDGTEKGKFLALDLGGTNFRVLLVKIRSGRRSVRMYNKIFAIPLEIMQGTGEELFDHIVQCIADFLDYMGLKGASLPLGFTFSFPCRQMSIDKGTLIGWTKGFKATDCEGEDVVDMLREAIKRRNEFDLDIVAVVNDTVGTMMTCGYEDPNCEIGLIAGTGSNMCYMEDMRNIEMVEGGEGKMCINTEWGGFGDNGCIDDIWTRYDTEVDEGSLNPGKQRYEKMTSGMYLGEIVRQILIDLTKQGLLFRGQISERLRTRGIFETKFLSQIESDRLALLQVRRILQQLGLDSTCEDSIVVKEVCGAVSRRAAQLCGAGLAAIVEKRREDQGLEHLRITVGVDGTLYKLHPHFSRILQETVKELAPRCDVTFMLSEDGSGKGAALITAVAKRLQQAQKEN

[11] = target: T2, Zinc finger protein mex-5 (Caenorhabditis elegans, UniProt Q9XUB2); assay: MEX-5/TCR-2 RNA interaction inhibitors, dose response, biochemical, C. elegans, fluorescence polarization (AID 1960)
T2 sequence (Q9XUB2 whole entry): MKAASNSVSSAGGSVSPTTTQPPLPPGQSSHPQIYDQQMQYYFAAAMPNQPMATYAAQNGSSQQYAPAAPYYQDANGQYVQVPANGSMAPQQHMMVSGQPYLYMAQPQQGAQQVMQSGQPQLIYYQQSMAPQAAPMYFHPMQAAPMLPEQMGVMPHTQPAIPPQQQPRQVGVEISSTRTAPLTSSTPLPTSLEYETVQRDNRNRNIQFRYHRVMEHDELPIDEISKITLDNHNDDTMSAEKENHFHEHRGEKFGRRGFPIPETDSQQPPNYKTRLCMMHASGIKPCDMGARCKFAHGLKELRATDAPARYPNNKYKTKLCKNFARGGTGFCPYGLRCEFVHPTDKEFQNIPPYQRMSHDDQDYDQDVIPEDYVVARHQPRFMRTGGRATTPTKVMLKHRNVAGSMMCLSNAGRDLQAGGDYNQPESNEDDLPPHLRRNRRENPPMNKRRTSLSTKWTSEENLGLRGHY

[12] = target: Long-chain-fatty-acid--AMP ligase FadD28 (Mycobacterium tuberculosis, UniProt P9WQ59); assay: Fluorescence polarization aasay to screen for inhibitors that compete for the binding of FadD28 to a bisubstrate Measured in Biochemical System Using Plate Reader - 2147-01_Inhibitor_Dose_CherryPick_Activity.; format: functional, Mycobacterium tuberculosis H37Rv
Chain of Long-chain-fatty-acid--AMP ligase FadD28 (P9WQ59 whole entry): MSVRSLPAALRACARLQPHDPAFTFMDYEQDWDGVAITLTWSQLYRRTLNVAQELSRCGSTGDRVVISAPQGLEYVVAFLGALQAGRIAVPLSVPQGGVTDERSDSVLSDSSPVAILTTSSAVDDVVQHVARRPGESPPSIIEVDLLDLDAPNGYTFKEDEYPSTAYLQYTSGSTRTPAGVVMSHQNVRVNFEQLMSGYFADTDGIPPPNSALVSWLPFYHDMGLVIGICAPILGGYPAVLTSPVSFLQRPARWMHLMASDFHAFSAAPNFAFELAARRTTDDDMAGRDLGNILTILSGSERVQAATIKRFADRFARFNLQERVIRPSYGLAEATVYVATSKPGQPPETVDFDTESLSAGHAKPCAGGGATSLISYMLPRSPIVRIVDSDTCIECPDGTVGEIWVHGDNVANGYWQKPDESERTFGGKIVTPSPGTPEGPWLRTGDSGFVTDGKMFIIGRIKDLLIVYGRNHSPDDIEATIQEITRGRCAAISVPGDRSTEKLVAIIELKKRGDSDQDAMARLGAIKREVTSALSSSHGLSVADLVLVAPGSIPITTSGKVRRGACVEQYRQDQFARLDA

[13] = target: T3, Apoptotic protease-activating factor 1 (Homo sapiens, UniProt O14727); format: functional
T3 sequence (O14727 whole entry): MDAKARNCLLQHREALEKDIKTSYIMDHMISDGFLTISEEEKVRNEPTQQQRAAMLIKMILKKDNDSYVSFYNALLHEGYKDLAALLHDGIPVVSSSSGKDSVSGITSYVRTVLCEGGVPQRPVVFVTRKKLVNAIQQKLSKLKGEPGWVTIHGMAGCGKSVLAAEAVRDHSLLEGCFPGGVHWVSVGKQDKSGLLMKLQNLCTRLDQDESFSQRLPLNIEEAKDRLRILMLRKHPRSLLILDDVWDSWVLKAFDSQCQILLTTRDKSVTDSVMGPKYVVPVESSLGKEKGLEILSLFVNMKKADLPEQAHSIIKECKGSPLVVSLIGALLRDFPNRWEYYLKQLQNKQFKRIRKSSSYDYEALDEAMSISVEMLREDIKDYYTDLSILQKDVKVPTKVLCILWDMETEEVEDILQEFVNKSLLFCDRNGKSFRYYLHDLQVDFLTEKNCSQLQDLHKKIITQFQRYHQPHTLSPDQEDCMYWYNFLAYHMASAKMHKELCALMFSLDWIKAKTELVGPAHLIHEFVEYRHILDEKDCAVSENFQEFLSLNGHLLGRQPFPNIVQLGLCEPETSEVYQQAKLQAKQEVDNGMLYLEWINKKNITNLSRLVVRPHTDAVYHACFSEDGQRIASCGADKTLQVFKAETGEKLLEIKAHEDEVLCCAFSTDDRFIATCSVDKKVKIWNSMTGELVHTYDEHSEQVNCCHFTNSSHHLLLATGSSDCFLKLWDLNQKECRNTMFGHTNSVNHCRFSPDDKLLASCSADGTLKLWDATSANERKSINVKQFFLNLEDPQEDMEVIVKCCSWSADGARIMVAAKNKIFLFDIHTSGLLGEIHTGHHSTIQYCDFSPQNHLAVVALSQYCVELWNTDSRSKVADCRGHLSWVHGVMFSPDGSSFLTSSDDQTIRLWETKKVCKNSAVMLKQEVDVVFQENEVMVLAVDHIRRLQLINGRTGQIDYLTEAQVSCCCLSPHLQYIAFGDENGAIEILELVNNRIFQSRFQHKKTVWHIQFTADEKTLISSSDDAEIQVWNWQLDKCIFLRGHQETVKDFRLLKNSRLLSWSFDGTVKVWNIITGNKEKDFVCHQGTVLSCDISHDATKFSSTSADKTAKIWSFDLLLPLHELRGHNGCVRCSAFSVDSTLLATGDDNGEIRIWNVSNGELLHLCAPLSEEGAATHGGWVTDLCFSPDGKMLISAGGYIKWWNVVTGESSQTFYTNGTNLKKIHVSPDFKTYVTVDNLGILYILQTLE

[14] = target: T4, RNA-binding protein pos-1 (Caenorhabditis elegans, UniProt G5EF15); assay: inhibitors of POS-1/mex-3 RNA binding, dose response, biochemical, fluorescence polarization (AID 1964);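 also: purified POS-1 fused to maltose binding protein made in E. coli; potency of compounds blocking POS-1 binding to fluorescent RNA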
T4 sequence (G5EF15 whole entry): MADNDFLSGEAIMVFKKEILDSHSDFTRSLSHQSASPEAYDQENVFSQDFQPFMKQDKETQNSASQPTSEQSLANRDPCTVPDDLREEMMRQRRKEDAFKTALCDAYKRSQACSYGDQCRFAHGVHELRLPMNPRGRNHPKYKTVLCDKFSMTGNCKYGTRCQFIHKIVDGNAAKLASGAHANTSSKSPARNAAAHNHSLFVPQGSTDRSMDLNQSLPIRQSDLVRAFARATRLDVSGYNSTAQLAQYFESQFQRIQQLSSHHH

[15] = target: Beta-arrestin-1 (Homo sapiens, UniProt P49407); assay: inhibitors of arrestin peptide binding to AP2, dose response, biochemical, cherry pick 1, beta2-adaptin appendage, flow cytometry (AID 588783); format: functional
Chain of Beta-arrestin-1 (P49407 whole entry): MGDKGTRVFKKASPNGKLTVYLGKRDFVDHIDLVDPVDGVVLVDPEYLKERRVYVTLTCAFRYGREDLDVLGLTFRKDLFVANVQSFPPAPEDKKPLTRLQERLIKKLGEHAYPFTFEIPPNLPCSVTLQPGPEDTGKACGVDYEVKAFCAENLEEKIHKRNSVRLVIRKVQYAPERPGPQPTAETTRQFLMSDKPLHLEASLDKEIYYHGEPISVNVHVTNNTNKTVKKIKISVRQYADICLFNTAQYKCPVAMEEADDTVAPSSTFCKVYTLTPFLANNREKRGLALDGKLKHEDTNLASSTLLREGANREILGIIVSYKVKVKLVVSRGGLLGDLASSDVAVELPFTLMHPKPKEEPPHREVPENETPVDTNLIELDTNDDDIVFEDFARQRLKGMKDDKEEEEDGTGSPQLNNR

[16] = Vero cell cytotoxicity, dose response, cytotoxicity control for Vif-APOBEC3G degradation inhibitor project, Vero cells (AID 1117358); format: functional; details: Human immunodeficiency virus 1, Vero
[17] = target: Dual specificity tyrosine-phosphorylation-regulated kinase 1A (Rattus norvegicus, UniProt Q63470); format: biochemical, Homo sapiens
[18] = target: Dual specificity protein kinase CLK1 (Homo sapiens, UniProt P49759); assay: CLK1 kinase inhibitors, off-target check, dose response, selectivity assay for Dyrk1A inhibitor project, biochemical, cherry-picked samples (AID 588811)
Chain of Dual specificity protein kinase CLK1 (P49759 whole entry): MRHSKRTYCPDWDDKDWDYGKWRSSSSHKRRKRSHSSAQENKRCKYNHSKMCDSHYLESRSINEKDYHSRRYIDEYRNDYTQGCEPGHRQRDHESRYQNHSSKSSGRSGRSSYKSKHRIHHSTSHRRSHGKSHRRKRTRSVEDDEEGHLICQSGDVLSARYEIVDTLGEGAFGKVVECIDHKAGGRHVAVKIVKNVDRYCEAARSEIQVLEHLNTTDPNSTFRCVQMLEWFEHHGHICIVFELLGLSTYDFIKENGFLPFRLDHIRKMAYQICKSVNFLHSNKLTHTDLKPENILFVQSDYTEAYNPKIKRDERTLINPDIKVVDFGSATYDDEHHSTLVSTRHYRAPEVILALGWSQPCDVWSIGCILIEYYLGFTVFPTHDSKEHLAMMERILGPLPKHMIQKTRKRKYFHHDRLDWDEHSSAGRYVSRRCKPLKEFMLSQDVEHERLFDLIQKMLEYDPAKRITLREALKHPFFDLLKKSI

[19] = test system: HEK293; assay: cytotoxicity in HEK293T NF-kB-Luc cells, SAR follow-up, cytotoxicity control for NF-kB activator project, cell-based, resazurin fluorescence (AID 493251); format: functional; details: Homo sapiens
[20] = test system: HEK293; assay: SAR Analysis of small molecule inhibitors of T-cell specific antigen receptor-induced NF-kB activation in a HEK-293T cell line using a luminescence assay - Set 2. [Related pubchem assays (depositor defined):AID435003, AID435012, AID489026]; format: functional, cell-based; details: Homo sapiens
[21] = cytotoxicity in HEK-293T cells, dose response, cytotoxicity control for BCR NF-kB inhibitor project, luminescence, B-cell screen hits (AID 489021); format: functional, cell-based;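 also: HEK-293T cells carrying an NF-kB luciferase reporter; cells exposed to compound for about 14 hours before viability readout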
[22] = test system: Jurkat; assay: SAR Analysis of small molecule inhibitors of T-cell specific antigen receptor-induced NF-kB activation in a Jurkat cell line using a luminescence assay - Set 2. [Related pubchem assays (depositor defined):AID435003, AID435012, AID465]; format: functional, cell-based; details: Homo sapiens

For `Cc1cc(C)n2nc(SCC(=O)N3CCN(c4ccccc4)CC3)nc2n1`, the AC50 [1] was 106 µM (active).
For `Br.CC1[C@H]2Cc3ccc(O)cc3[C@]1(C)CCN2CCc1ccccc1` (some centres not stated), the EC50 [2] was 0.551 µM (active), the EC50 [3] was > 0.01406 µM and the EC50 [4] was > 92.5 µM (inactive). For the same molecule, the EC50 [5] was > 10.3 µM (inactive).
With `c1cncc(-c2nc(NCCCn3cccc3)c3ccccc3n2)c1` the AC50 [6] was 2.97 µM (active) and the AC50 [7] was 7.63 µM (active).
With `CCOC(=O)c1ccc(NC(=O)Cn2nnc(-c3ccc(C)cc3)n2)cc1` the EC50 [8] was 158 nM (active) and 839 nM (active).
For `O=c1c2ccccc2nc(/C=C/c2cccnc2)n1Cc1ccccc1F`, the IC50 [9] was > 80 µM (inactive) and the IC50 [10] was > 80 µM (inactive).
In the case of `Cc1cc2nc3ccc(N(C)C)cc3nc2cc1N`, the EC50 [11] is reported as 14.3 µM (active), the AC50 [12] is reported as 33.6 µM (active) and the IC50 [13] is reported as 34 µM (active). The EC50 [14] was 13 µM (active) and the IC50 [15] was 8.88 µM (active).
For `CN(C)S(=O)(=O)c1ccc(NC(=O)c2cc3ccccc3o2)cc1`, the CC50 [16] was > 40 µM (active), the AC50 [17] was 29.9 µM (active) and the AC50 [18] was 21.1 µM (active).
With `COc1cc(-c2nc3n(n2)C(c2ccc(F)cc2)C2=C(O)CCCC2=N3)cc(OC)c1OC` (configuration not stated) the IC50 [19] was 39.1 µM (inactive), the IC50 [20] was 31.4 µM (inactive) and the IC50 [21] was > 80 µM (inactive). For the same molecule, the IC50 [22] was > 79 µM (inactive).
